Test results published in patent US20100273696A1, “Composition and method for the prevention and removal of unwanted paint on a surface” (priority 2009, published 2010).

How the values were obtained:
[1] = Solubility in water of possible ingredients; type: physicochemical
[2] = Toxicity (hazard class) of possible ingredients; details: hazard symbol or 'none'

| Compound | Solubility in H2O ([1]; result in words) | Solubility in H2O ([1]; given as percent) | Toxicity [2] |
| --- | --- | --- | --- |
| CN1CCCC1=O [N-methyl-2-pyrrolidinone] | complete | – | – |
| CCCCOCCOCCOC(C)=O [[2-(2-butoxyethoxy)-ethyl]-acetate] | – | 6.5% | none |
| CCOC(=O)CC(CC(C)=O)C(=O)OCC (centres unmarked) [diethyl acetonyl succinate] | – | – | none |
| CCCCOCCOCCOCCCC [diethylene glycol dibutyl ether] | – | 0.3% | – |
| CCOCCOCCOCC [diethylene glycol diethyl ether] | complete | – | none |
| COCCOCCOC [diethylene glycol dimethyl ether] | complete | – | – |
| CCCOCCOCCOCCC [diethylene glycol dipropyl ether] | complete | – | none |
| CCCCOCCOCCO [diethylene glycol monobutyl ether] | – | 10% | – |
| CCOCCOCCO [diethylene glycol monoethyl ether] | complete | – | none |
| COCCOCCO [diethylene glycol monomethyl ether] | complete | – | – |
| CCCOCCOCCO [diethylene glycol monopropyl ether] | complete | – | none |
| COC(=O)CCC(=O)OC [dimethyl succinate] | – | 7.5% | – |
| C[S+](C)[O-] [dimethyl sulfoxide] | complete | – | none |
| COCC(C)OCC(C)OC (centres unmarked) [dipropylene glycol dimethyl ether] | complete | – | none |
| CCOC(C)COC(C)CO (centres unmarked) [dipropylene glycol monoethyl ether] | complete | – | none |
| COC(C)COC(C)CO (centres unmarked) [dipropylene glycol monomethyl ether] | complete | – | none |
| CCCOC(C)COC(C)CO (centres unmarked) [dipropylene glycol monopropyl ether] | complete | – | none |
| O=C1OCCO1 [ethylene carbonate] | – | – | none |
| CC1COC(=O)O1 (centres unmarked) [propylene carbonate] | – | 24% | – |
| COCCOCCOCCOCCOC [tetraethylene glycol dimethyl ether] | complete | – | none |
| COCCOCCOCCOCCO [tetraethylene glycol monomethyl ether] | complete | – | none |
| COCCOCCOCCOC [triethylene glycol dimethyl ether] | complete | – | none |
| COCCOCCOCCO [triethylene glycol monomethyl ether] | – | – | none |
| CCCCOC(C)COC(C)COC(C)CO (centres unmarked) [tripropylene glycol monobutyl ether] | – | – | none |
| COC(C)COC(C)COC(C)CO (centres unmarked) [tripropylene glycol monomethyl ether] | complete | – | none |
| O=C1CCCO1 [γ-butyrolactone] | complete | – | – |
| PEG-8 Oleate | – | – | none |
| lauryl ethercarboxylic acid (10 EO) | complete | – | none |
| octyl ethercarboxylic acid (8 EO) | complete | – | none |
| oleyl ethercarboxylic acid (9 EO) | complete | – | none |
